From paper PMC9862023, “Isosarcophytoxide Derivatives with a 2,5-Dihydrofuran Moiety from the Soft Coral Sarcophyton cinereum” (Molecules, 2023)

Experiments:
[1] = test system: human small cell lung cancer (H1688) cells; assay: Cytotoxicity MTT assay, H1688 cell line; format: cell-based; conditions: 37 °C, 24 h, read-out: cytotoxicity toward H1688 cell line, IC50
Procedure: The cytotoxicities of compounds were analyzed by using the human small cell lung cancer H1688 cell line and the 3-(4,5-dimethylthiazol-2-yl)-2,5-diphenyl tetrazolium bromide (MTT, Sigma-Aldrich, St. Louis, MO, USA) assay at 37 °C for 24 h.

[2] = test system: TNF-α expression in LPS-stimulated murine dendritic cells (DCs); assay: TNF-α expression by LPS-induced DCs (ELISA); format: cell-based; conditions: Mus musculus, Dendritic cell, 100 ng/mL LPS, 24 h, read-out: inhibition of TNF-α expression in LPS-stimulated DCs, IC50
Procedure: The TNF-α expressions of LPS-induced DCs were measured by enzyme-link immunosorbent assay (ELISA), in the same way as the previously reported method. The DCs were treated with 100 ng/mL lipopolysaccharide (LPS) and the isolated compounds for 24 h. The optical density of the production of TNF-α was measured at 450 nm by the ELISA reader.

[3] = Cell viability of dendritic cells (CCK-8); format: cell-based, murine; conditions: mouse, dendritic cells (DCs), CCK-8, 37 °C, read-out: cytotoxicity against DCs, IC50
Procedure: The DCs (1 × 10^6) were treated with tested compounds (100 μg/mL) and cultured at 37 °C for 24 h. Cytotoxicity was examined using a Cell Counting Kit-8 (CCK-8; Dojindo Molecular Technologies, Inc., Kumamoto, Japan) according to the manufacturer’s protocol. The absorbance was recorded on a microplate reader (Tecan Group Ltd., Männedorf, Switzerland) at a wavelength of 450 nm.

Row | Structure (SMILES) | IC50 [1] [µM] | IC50 [2] [µM] | IC50 at 24 h [3] [µM]
1 | COC1OC2C=C(C)CCC=C(C)CCC3OC3(C)CCC2=C1C (stereo not drawn) [compound 3, 16β-Methoxyisosarcophytoxide] | 27.5 ± 6.4 | – | –
2 | C=C[C@@](C)(Cl)[C@@H](Cl)/C=C/C(=C/Cl)C(Cl)Cl (relative stereo) [(3R*,4S*,5E,7Z)-7-dichlorothyl-3,4,8-trichloro-3-methylocta-1,5,7-triene] | 4.2 ± 2.1 | – | –
3 | COC1OC2C=C(C)CCC=C(C)CCC3OC3(C)CCC2=C1C (stereo not drawn) [compound 4, 16α-Methoxyisosarcophytoxide] | 85.8 | – | –
4 | O=c1c(O)c(-c2ccc(O)c(O)c2)oc2cc(O)cc(O)c12 [Quercetin] | – | 23.1 ± 5.2 | 78.8 ± 7.3
